The results in this text go back to PubChem BioAssay AID248 (DTP/NCI, 2004).

In the test the test system is L1210 leukemia ip in BDF1 mice, survival T/C. The experiment in a line: NCI In Vivo Anticancer Drug Screen. Data for tumor model L1210 Leukemia (intraperitoneal) in B6D2F1 (BDF1) mice. The settings on record: endpoint: mean survival time, higher = longer survival. In outline: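 Value reflects the ratio of survival in compound-treated mice to survival in vehicle-treated controls, with both groups carrying the same transplanted tumor.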

Setting [1] is: dose: 100.0 mg/kg/injection, schedule: Q01DX009 (ip), vehicle: Klucel (hydroxypropylcellulose) (HPC).
[2] abbreviates: dose: 200.0 mg/kg/injection, schedule: Q01DX009 (ip), vehicle: Klucel (hydroxypropylcellulose) (HPC).
Setting [3] is: dose: 100.0 mg/kg/injection, schedule: Q04DX003 (ip), vehicle: other.
[4] abbreviates: dose: 200.0 mg/kg/injection, schedule: Q04DX003 (ip), vehicle: other.
Setting [5] is: dose: 400.0 mg/kg/injection, schedule: Q04DX003 (ip), vehicle: other.
Setting [6] is: dose: 100.0 mg/kg/injection, schedule: Q01DX009 (ip), vehicle: saline with Tween-80.
Where [7] appears, read: dose: 200.0 mg/kg/injection, schedule: Q01DX009 (ip), vehicle: saline with Tween-80.
Where [8] appears, read: dose: 400.0 mg/kg/injection, schedule: Q01DX009 (ip), vehicle: saline with Tween-80.
The mark [9] stands for this setting: dose: 50.0 mg/kg/injection, schedule: Q01DX001 (ip), vehicle: saline.
Where [10] appears, read: dose: 100.0 mg/kg/injection, schedule: Q01DX001 (ip), vehicle: saline.
Where [11] appears, read: dose: 200.0 mg/kg/injection, schedule: Q01DX001 (ip), vehicle: saline.
Where [12] appears, read: dose: 400.0 mg/kg/injection, schedule: Q01DX001 (ip), vehicle: saline.

Values joined by “and” are separate entries in the source; they are usually repeats but may differ in a detail not shown here. Identical values can stand only once. Toxic doses and inconclusive results are not listed. Square brackets hold non-standard residues; d marks the D form. Peptide text beside a SMILES is read from it. * marks the point of attachment. ξ: configuration not given here. Cbz = O=C(OCc1ccccc1)*; ξI = CCC(C)C(N)C(=O)O; OBn = c1ccc(CO*)cc1

As to `O=S(CCCl)CCCl`, the T/C (dose: 0.21 mg/kg/injection, schedule: Q04DX003 (ip), vehicle: Klucel (hydroxypropylcellulose) (HPC)) was 95 % of control; the T/C (dose: 0.42 mg/kg/injection, schedule: Q04DX003 (ip), vehicle: Klucel (hydroxypropylcellulose) (HPC)) was 93 % of control; the T/C (dose: 0.85 mg/kg/injection, schedule: Q04DX003 (ip), vehicle: Klucel (hydroxypropylcellulose) (HPC)) was 98 % of control; the T/C (dose: 0.9 mg/kg/injection, schedule: Q01DX009 (ip), vehicle: Klucel (hydroxypropylcellulose) (HPC)) was 116 % of control; the T/C (dose: 1.3 mg/kg/injection, schedule: Q01DX009 (ip), vehicle: Klucel (hydroxypropylcellulose) (HPC)) is 116 % of control; the T/C (dose: 2.0 mg/kg/injection, schedule: Q04DX003 (ip), vehicle: Klucel (hydroxypropylcellulose) (HPC)) was 120 % of control. Also, the T/C is 123 % of control (dose: 2.6 mg/kg/injection, schedule: Q04DX003 (ip), vehicle: Klucel (hydroxypropylcellulose) (HPC)); 115 % of control (dose: 6.0 mg/kg/injection, schedule: Q04DX003 (ip), vehicle: Klucel (hydroxypropylcellulose) (HPC)); 109 % of control (dose: 8.0 mg/kg/injection, schedule: Q01DX009 (ip), vehicle: Klucel (hydroxypropylcellulose) (HPC)); 114 % of control (dose: 8.0 mg/kg/injection, schedule: Q04DX003 (ip), vehicle: Klucel (hydroxypropylcellulose) (HPC)); 90 % of control (dose: 12.5 mg/kg/injection, schedule: Q04DX003 (ip), vehicle: Klucel (hydroxypropylcellulose) (HPC)); 89 % of control (dose: 50.0 mg/kg/injection, schedule: Q04DX003 (ip), vehicle: Klucel (hydroxypropylcellulose) (HPC)).

Turning to `C(/C=N/N(c1ccccc1)c1ccccc1)=N\N(c1ccccc1)c1ccccc1`, the T/C is, setting by setting: under setting [1], 97 % of control; (dose: 100.0 mg/kg/injection, schedule: Q04DX003 (ip), vehicle: Klucel (hydroxypropylcellulose) (HPC)) 101 % of control; under setting [2], 92 % of control; (dose: 200.0 mg/kg/injection, schedule: Q04DX003 (ip), vehicle: Klucel (hydroxypropylcellulose) (HPC)) 106 % of control; (dose: 400.0 mg/kg/injection, schedule: Q01DX009 (ip), vehicle: Klucel (hydroxypropylcellulose) (HPC)) 95 % of control; (dose: 400.0 mg/kg/injection, schedule: Q04DX003 (ip), vehicle: Klucel (hydroxypropylcellulose) (HPC)) 93 % of control.

As for `COC(=O)c1cc(OC)cc(OC)c1`, the T/C is 88 % of control under setting [3], 92 % of control under setting [4] and 97 % of control under setting [5].

Take `O=C(Nc1ccc(S(=O)(=O)F)cc1)c1ccc(COc2ccc([N+](=O)[O-])cc2Cl)cc1`: the T/C under setting [6] was 92 % of control, the T/C under setting [7] is 94 % of control and the T/C under setting [8] was 94 % of control.

In the case of `CCOC(=O)C(=O)Cc1nc2ccccc2[nH]c1=O`, the T/C (dose: 50.0 mg/kg/injection, schedule: Q01DX009 (ip), vehicle: Klucel (hydroxypropylcellulose) (HPC)) was 94 % of control; the T/C under setting [1] is 91 % of control; the T/C under setting [2] is 94 % of control.

For `O=COC1CC2CC1c1ccccc12` (configuration not stated), the T/C by setting is: under setting [9], 105 % of control; under setting [10], 105 % of control; under setting [11], 105 % of control; under setting [12], 105 % of control.

As for `Cc1ccc(-n2c(O)c(N=Nc3ccc(Cl)cc3)c(=O)n(-c3ccccc3)c2=S)cc1`, the T/C is 96 % of control (dose: 37.5 mg/kg/injection, schedule: Q01DX001 (ip), vehicle: Klucel (hydroxypropylcellulose) (HPC)); 92 % of control (dose: 75.0 mg/kg/injection, schedule: Q01DX001 (ip), vehicle: Klucel (hydroxypropylcellulose) (HPC)); 102 % of control (dose: 150.0 mg/kg/injection, schedule: Q01DX001 (ip), vehicle: Klucel (hydroxypropylcellulose) (HPC)).

In the case of `C(=N\N1CCN(/N=C/c2ccc3c(c2)OCO3)CC1)/c1ccc2c(c1)OCO2`, the T/C was 104 % of control under setting [10], 102 % of control under setting [11] and 96 % of control under setting [12].

Consider `CC(C)N(C(=S)SSC(=S)N(C(C)C)C(C)C)C(C)C`, for which the T/C was 97 % of control (dose: 50.0 mg/kg/injection, schedule: Q01DX009 (ip), vehicle: saline with Tween-80); 101 % of control under setting [6]; 97 % of control under setting [7].

Consider `NC(=O)c1[nH]cnc1/N=N/N(CCO)Cc1ccccc1`, for which the T/C was 98 % of control (dose: 50.0 mg/kg/injection, schedule: Q01DX001 (ip), vehicle: water); 105 % of control (dose: 50.0 mg/kg/injection, schedule: Q04DX003 (ip), vehicle: water); 96 % of control (dose: 100.0 mg/kg/injection, schedule: Q01DX001 (ip), vehicle: water); 98 % of control under setting [6]; 105 % of control (dose: 100.0 mg/kg/injection, schedule: Q04DX003 (ip), vehicle: water); 98 % of control (dose: 200.0 mg/kg/injection, schedule: Q01DX001 (ip), vehicle: water). For the same molecule, the T/C is, setting by setting: under setting [7], 102 % of control; (dose: 200.0 mg/kg/injection, schedule: Q04DX003 (ip), vehicle: water) 101 % of control; (dose: 400.0 mg/kg/injection, schedule: Q01DX001 (ip), vehicle: water) 101 % of control; under setting [8], 95 % of control; (dose: 400.0 mg/kg/injection, schedule: Q04DX003 (ip), vehicle: water) 97 % of control.

As to `O=C(Nc1ccccc1)OC/C=C\c1ccccc1`, the T/C is, setting by setting: (dose: 200.0 mg/kg/injection, schedule: Q04DX002 (ip), vehicle: Klucel (hydroxypropylcellulose) (HPC)) 90 % of control; (dose: 400.0 mg/kg/injection, schedule: Q04DX002 (ip), vehicle: Klucel (hydroxypropylcellulose) (HPC)) 93 % of control.

For the molecule `COc1ccccc1N1C(=O)CSC1=S`, the T/C under setting [6] is 102 % of control, the T/C under setting [7] was 106 % of control and the T/C under setting [8] was 100 % of control.

For the molecule `CCC(C)C(NC(=O)CNC(=O)OCc1ccccc1)C(=O)OCc1ccccc1` (stereo not drawn) (Cbz-Gly-[ξI]-OBn), the T/C reads like this: under setting [3], 104 % of control; under setting [4], 98 % of control; under setting [5], 103 % of control.

Turning to `CC1CCCCC1(C)C1C=CC(=O)OC1(C)C` (configuration not stated), the T/C by setting is: (dose: 25.0 mg/kg/injection, schedule: Q04DX003 (ip), vehicle: saline) 97 % of control; (dose: 50.0 mg/kg/injection, schedule: Q04DX003 (ip), vehicle: saline) 97 % of control; (dose: 100.0 mg/kg/injection, schedule: Q04DX003 (ip), vehicle: saline) 97 % of control.

`CCOc1ccccc1/C=C(\C#N)c1cccc(Cl)c1`: the T/C is, setting by setting: (dose: 100.0 mg/kg/injection, schedule: Q01DX009 (ip), vehicle: other) 87 % of control; (dose: 200.0 mg/kg/injection, schedule: Q01DX009 (ip), vehicle: other) 88 % of control.

Turning to `CC(CO)CCCC(C)C1CCC2C3CC=C4CC(O)CCC4(C)C3CCC12C` (configuration not stated), the T/C (dose: 100.0 mg/kg/injection, schedule: Q01DX001 (ip), vehicle: saline with Tween-80) is 94 % of control; the T/C (dose: 200.0 mg/kg/injection, schedule: Q01DX001 (ip), vehicle: saline with Tween-80) is 90 % of control; the T/C (dose: 400.0 mg/kg/injection, schedule: Q01DX001 (ip), vehicle: saline with Tween-80) is 100 % of control.

`CN(C)C=Nc1ccc(Cl)cc1`: the T/C is, setting by setting: (dose: 25.0 mg/kg/injection, schedule: Q01DX001 (ip), vehicle: other) 93 % of control; (dose: 50.0 mg/kg/injection, schedule: Q01DX001 (ip), vehicle: other) 101 % of control; under setting [9], 100 % of control; (dose: 50.0 mg/kg/injection, schedule: Q04DX003 (ip), vehicle: other) 90 % of control; (dose: 100.0 mg/kg/injection, schedule: Q01DX001 (ip), vehicle: other) 103 % of control and 91 % of control; under setting [3], 102 % of control. The T/C under setting [4] was 101 % of control.

Regarding `CC(=O)Cc1cc(=O)[nH]c(=O)[nH]1`, the T/C under setting [6] was 95 % of control and the T/C under setting [7] was 89 % of control.

Take `NC(=O)c1nn(C2OC(CO)C(O)C2O)c2ncnc(N)c12` (configuration not stated): the T/C by setting is: (dose: 50.0 mg/kg/injection, schedule: Q01DX005 (ip), vehicle: saline) 236 % of control; (dose: 100.0 mg/kg/injection, schedule: Q01DX005 (ip), vehicle: saline) 258 % of control; (dose: 200.0 mg/kg/injection, schedule: Q01DX005 (ip), vehicle: saline) 236 % of control.

For the molecule `CCCCCCCC[Si](C)(C)C`, the T/C runs as follows: under setting [10], 100 % of control; under setting [11], 97 % of control; under setting [12], 115 % of control.
